Experiments:
Assay in all cases: relative viability (nuclei count vs DMSO), 5 days (fraction); higher = more cells survive
IDH-C35 + Linsitinib = compound: Cc1ccccc1C(C(=O)NC1CCCCC1)N(C(=O)Cn1ccnc1C)c1cccc(F)c1 [IDH-C35] + C[C@]1(O)C[C@@H](c2nc(-c3ccc4ccc(-c5ccccc5)nc4c3)c3c(N)nccn32)C1 [Linsitinib] (partner 1 µM)
In short: (§1)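 Lung cancer cell lines in 1536-well plates got either a single drug or a fixed anchor-drug dose together with five library-drug doses (not always all listed) in √10 steps, by pin tool, on the day after seeding. Nuclei were counted after 5 days, and relative viability is the treated-to-vehicle ratio of nuclei counts. Values are medians of duplicate plates.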

IDH-C35 + Bortezomib = compound: Cc1ccccc1C(C(=O)NC1CCCCC1)N(C(=O)Cn1ccnc1C)c1cccc(F)c1 [IDH-C35] + CC(C)C[C@H](NC(=O)[C@H](Cc1ccccc1)NC(=O)c1cnccn1)B(O)O [Bortezomib] (partner 0.002 µM)
In short: as §1

[1] = compound: CC1=C(C(=NN1)C)CC2=C(C3=C(S2)N(C(=O)N(C3=O)C)CC(C)C)C(=O)N4C[C@@H](CO4)O + O=C(c1cc(Cc2n[nH]c(=O)c3ccccc23)ccc1F)N1CCN(C(=O)C2CC2)CC1 [Olaparib] (partner 8 µM)
In short: as §1

[2] = compound: CC1=C(C(=NN1)C)CC2=C(C3=C(S2)N(C(=O)N(C3=O)C)CC(C)C)C(=O)N4C[C@@H](CO4)O + Cc1nc(NC(=O)N2CCC[C@H]2C(N)=O)sc1-c1ccnc(C(C)(C)C(F)(F)F)c1 [Alpelisib] (partner 2 µM)
In short: as §1

| Cell Line | relative viability (IDH-C35 + Linsitinib; first compound 0.08 µM) | relative viability (IDH-C35 + Linsitinib; first compound 0.253 µM) | relative viability (IDH-C35 + Linsitinib; first compound 0.8 µM) | relative viability (IDH-C35 + Linsitinib; first compound 2.53 µM) | relative viability (IDH-C35 + Linsitinib; first compound 8 µM) | relative viability (IDH-C35 + Bortezomib; first compound 0.08 µM) | relative viability (IDH-C35 + Bortezomib; first compound 0.253 µM) | relative viability (IDH-C35 + Bortezomib; first compound 0.8 µM) | relative viability (IDH-C35 + Bortezomib; first compound 2.53 µM) | relative viability (IDH-C35 + Bortezomib; first compound 8 µM) | relative viability ([1]; first compound 0.0025 µM) | relative viability ([1]; first compound 0.007906 µM) | relative viability ([1]; first compound 0.025 µM) | relative viability ([1]; first compound 0.07906 µM) | relative viability ([1]; first compound 0.25 µM) | relative viability ([2]; first compound 0.0025 µM) | relative viability ([2]; first compound 0.007906 µM) | relative viability ([2]; first compound 0.025 µM) | relative viability ([2]; first compound 0.07906 µM) | relative viability ([2]; first compound 0.25 µM) |
| --- | --- | --- | --- | --- | --- | --- | --- | --- | --- | --- | --- | --- | --- | --- | --- | --- | --- | --- | --- | --- |
| NCI-H596 | 1.14 | 1.14 | 0.986 | 1.14 | 1.13 | 1.02 | 0.998 | 1.2 | 1.2 | 0.999 | 0.765 | 0.743 | 0.73 | 0.696 | 0.635 | 0.474 | 0.53 | 0.482 | 0.567 | 0.589 |
| NCI-H322M | 0.965 | 0.878 | 0.81 | 0.95 | 0.794 | 1.22 | 1.17 | 1.15 | 1.21 | 1.27 | 0.448 | 0.726 | 0.702 | 0.659 | 0.736 | 0.769 | 0.793 | 0.866 | 0.831 | 0.748 |
| NCI-H1299 | 1.11 | 0.969 | 0.976 | 1 | 0.957 | 1.02 | 1.01 | 1.03 | 0.964 | 1.03 | 0.986 | 0.991 | 0.975 | 1.01 | 0.988 | 1.07 | 1.08 | 1.01 | 1.09 | 1.11 |
| NCI-H2228 | 0.596 | 0.496 | 0.629 | 0.668 | 0.749 | 0.968 | 0.857 | 0.898 | 1.09 | 0.818 | 0.609 | 0.745 | 0.786 | 0.786 | 0.993 | 0.911 | 0.673 | 1.01 | 0.722 | 0.9 |
| IA-LM | 0.876 | 0.776 | 0.628 | 0.621 | 0.589 | 0.855 | 0.87 | 0.844 | 0.924 | 0.769 | 0.907 | 1.03 | 0.807 | 0.757 | 0.865 | 0.832 | 0.812 | 0.858 | 0.749 | 0.991 |
| NCI-H647 | 1.03 | 1.29 | 1.18 | 1.1 | 1.1 | 1.08 | 0.805 | 0.989 | 1.19 | 0.889 | 0.626 | 0.415 | 0.481 | 0.647 | 0.685 | 1.16 | 1.03 | 1.19 | 1.32 | 1.75 |
| NCI-H2085 | 0.807 | 0.815 | 0.922 | 0.992 | 0.846 | 1.02 | 1.05 | 0.981 | 0.982 | 0.871 | 0.736 | 0.686 | 0.704 | 0.72 | 0.752 | 0.989 | 0.975 | 0.831 | 0.855 | 0.873 |
| SW 1573 | 0.78 | 0.752 | 0.832 | 0.821 | 0.678 | 1.06 | 1.19 | 0.967 | 1.06 | 1.05 | 0.462 | 0.515 | 0.521 | 0.468 | 0.492 | 0.756 | 0.699 | 0.764 | 0.715 | 0.917 |
| NCI-H727 | 0.202 | 0.248 | 0.328 | 0.249 | 0.254 | 0.891 | 0.896 | 0.801 | 0.782 | 0.94 | 0.813 | 0.762 | 0.747 | 0.782 | 0.568 | 0.535 | 0.512 | 0.731 | 0.55 | 0.666 |
| NCI-H441 | 0.589 | 0.518 | 0.404 | 0.651 | 0.633 | 0.524 | – | 0.617 | 0.508 | 0.447 | 0.648 | 0.529 | 0.521 | 0.478 | 0.593 | 0.83 | 0.602 | 0.616 | 1.06 | 0.902 |
| LOU-NH91 | 0.944 | 0.998 | 0.968 | 0.927 | 0.973 | 0.574 | 0.485 | 0.519 | 0.527 | 0.502 | 0.912 | 0.877 | 0.925 | 0.956 | 0.926 | 0.734 | 0.626 | 0.791 | 0.799 | 0.708 |
| NCI-H3122 | 0.991 | 0.971 | 0.972 | 1.01 | 1.02 | 1.1 | 1.01 | 0.985 | 1.02 | 1.02 | 0.62 | 0.659 | 0.64 | 0.618 | 0.628 | 0.813 | 0.816 | 0.788 | 0.783 | 0.706 |
| NCI-H460 | 0.909 | 0.872 | 0.843 | 0.749 | 0.663 | 1.2 | 1.18 | 1.08 | 1.11 | 1.12 | 0.419 | 0.516 | 0.418 | 0.355 | 0.459 | 0.721 | 0.493 | 0.575 | 0.492 | 0.571 |
| NCI-H650 | 1.09 | 1.05 | 0.799 | – | 0.771 | 0.774 | 0.93 | 0.755 | – | 0.861 | 0.415 | 0.45 | 0.345 | 0.41 | 0.454 | 1.28 | 1.11 | 0.972 | 1 | 1.18 |
| NCI-H661 | 0.625 | 0.54 | 0.51 | 0.54 | 0.644 | 0.953 | 0.809 | 0.837 | 0.828 | 0.761 | 0.72 | 0.738 | 0.681 | 0.782 | 0.77 | 0.914 | 0.803 | 0.559 | 0.654 | 0.421 |
